We go through four compounds from ChEMBL document CHEMBL3244251, “Mitomycin antibiotics. Synthesis of 7-methoxy-1-(N-pyrrolidino)mitosene and its methiodide” (J Med Chem, 1978).

Active and inactive are the calls of the source. No cut-off for these calls is given here.

Data set [1] relates to Enterobacteria phage lambda. The data set can be described thus: Induction of lambda phage production in streptomycin-dependent lysogenic Escherichia coli W1709 (lambda) assessed as ratio of plaques in treated culture to control at 0.2 ug/ml. Type of data set: functional.
Data set [2] has as its system Enterobacteria phage lambda. The experiment in a line: Induction of lambda phage production in streptomycin-dependent lysogenic Escherichia coli W1709 (lambda) assessed as ratio of plaques in treated culture to control at 12.5 ug/ml. Type of data set: functional.
The subject of data set [3] is Enterobacteria phage lambda. The experiment in a line: Induction of lambda phage production in streptomycin-dependent lysogenic Escherichia coli W1709 (lambda) assessed as ratio of plaques in treated culture to control at 0.8 ug/ml. Type of data set: functional.
The subject of data set [4] is Enterobacteria phage lambda. The data set can be described thus: Induction of lambda phage production in streptomycin-dependent lysogenic Escherichia coli W1709 (lambda) assessed as ratio of plaques in treated culture to control at 0.5 ug/ml. In kind it is functional.
Data set [5] concerns P388. The experiment in a line: In vivo antitumor activity against mouse P388 cells relative to control. In kind it is functional, organism-based.
Data set [6] has as its system Bacillus subtilis. The experiment in a line: Antibacterial activity against Bacillus subtilis assessed as growth inhibition at 12.5 ug/ml in 100 mm disk at pH 8.0 by single-disk method. Type of data set: functional. The settings on record: read-out: IZ.
Data set [7] concerns Bacillus subtilis. The experiment in a line: Antibacterial activity against Bacillus subtilis assessed as growth inhibition at 50 ug/ml in 100 mm disk at pH 8.0 by single-disk method. The conditions noted are these: read-out: IZ. In kind it is functional.
In data set [8] the test system is Enterobacteria phage lambda. The data set can be described thus: Induction of lambda phage production in streptomycin-dependent lysogenic Escherichia coli W1709 (lambda) assessed as ratio of plaques in treated culture to control at 3.1 ug/ml. In kind it is functional.
The test system of data set [9] is Enterobacteria phage lambda. The data set can be described thus: Induction of lambda phage production in streptomycin-dependent lysogenic Escherichia coli W1709 (lambda) assessed as ratio of plaques in treated culture to control at 0.0125 ug/ml. Type of data set: functional.
The subject of data set [10] is Bacillus subtilis. The experiment in a line: Antibacterial activity against Bacillus subtilis assessed as growth inhibition at 0.8 ug/ml in 100 mm disk at pH 8.0 by single-disk method. Type of data set: functional. The settings on record: read-out: IZ.
The test system of data set [11] is P388. The data set can be described thus: In vivo antitumor activity against mouse P388 cells at 6.4 mg/kg relative to control. In kind it is functional.
Data set [12] relates to Escherichia coli. The experiment in a line: Toxicity in streptomycin-dependent lysogenic Escherichia coli W1709 (lambda) at 0.5 ug/ml. Type of data set: organism-based. The settings on record: in vivo.
Data set [13] relates to Bacillus subtilis. The data set can be described thus: Antibacterial activity against Bacillus subtilis assessed as growth inhibition at 0.2 ug/ml in 100 mm disk at pH 8.0 by single-disk method. Type of data set: functional. The conditions noted are these: read-out: IZ.
The subject of data set [14] is Escherichia coli. The data set can be described thus: Toxicity in streptomycin-dependent lysogenic Escherichia coli W1709 (lambda) at 0.8 ug/ml. In kind it is organism-based. The settings on record: in vivo.
The test system of data set [15] is Bacillus subtilis. The experiment in a line: Antibacterial activity against Bacillus subtilis assessed as growth inhibition at 5.5 ug/ml in 100 mm disk at pH 8.0 by single-disk method. Type of data set: functional. The conditions noted are these: read-out: IZ.
Data set [16] relates to Escherichia coli. The data set can be described thus: Toxicity in streptomycin-dependent lysogenic Escherichia coli W1709 (lambda) at 12.5 ug/ml. In kind it is organism-based. The settings on record: in vivo.
Data set [17] has as its system Escherichia coli. The data set can be described thus: Toxicity in streptomycin-dependent lysogenic Escherichia coli W1709 (lambda) at 3.1 ug/ml. The conditions noted are these: in vivo. Type of data set: organism-based.
For data set [18], the system named is Bacillus subtilis. The experiment in a line: Antibacterial activity against Bacillus subtilis assessed as growth inhibition at 16.6 ug/ml in 100 mm disk at pH 8.0 by single-disk method. In kind it is functional. The settings on record: read-out: IZ.
In data set [19] the test system is Bacillus subtilis. The experiment in a line: Antibacterial activity against Bacillus subtilis assessed as growth inhibition at 3.1 ug/ml in 100 mm disk at pH 8.0 by single-disk method. Type of data set: functional. The conditions noted are these: read-out: IZ.

Regarding `COC1=C(C)C(=O)c2c(c(COC(N)=O)c3n2CCC3[N+]2(C)CCCC2)C1=O` (configuration not stated), the T/C in [1] came to 1.1; in data set [2], 2.2; in data set [3] it was 1.1; in [4], 1.1; in data set [8], 1.2. For the same compound, the result with P388 [5] was inactive. In addition, the zone of inhibition at 12.5 µg/mL in the data set on Bacillus subtilis [6] was 10 mm. Moreover, in the data set on Bacillus subtilis [7], the zone of inhibition at 50 µg/mL was 14.2 mm.

Consider `CO[C@@]12[C@H](COC(N)=O)C3=C(C(=O)C(C)=C(N)C3=O)N1C[C@@H]1N[C@@H]12` [MITOMYCIN], for which the T/C in data set [9] came to 8.6; in data set [4], 17.5; in the data set on P388 [11], 283%. Moreover, the zone of inhibition at 0.8 µg/mL with Bacillus subtilis [10] came out at 32 mm. Besides, the Activity result with Escherichia coli [12] is given as “Toxic”. The zone of inhibition at 0.2 µg/mL in the data set with Bacillus subtilis [13] came to 22.8 mm.

For `COC1=C(C)C(=O)c2c(c(COC(N)=O)c3n2CCC3OC(C)=O)C1=O` (configuration not stated), the Activity result in the data set on Escherichia coli [14], in the data set with Escherichia coli [16] and with Escherichia coli [17] was “Toxic” each time. The T/C in data set [1] is 27.9; in [2] it was above 49; in [3] it was above 49; with P388 [11] it was 162%; in data set [8] it was above 74. The zone of inhibition at 5.5 µg/mL with Bacillus subtilis [15] amounted to 31.2 mm. Besides, in the data set on Bacillus subtilis [7], the zone of inhibition at 50 µg/mL turned out to be 35 mm. Moreover, the zone of inhibition at 16.6 µg/mL with Bacillus subtilis [18] stood at 35 mm.

Take `COC1=C(C)C(=O)c2c(c(COC(N)=O)c3n2CCC3N2CCCC2)C1=O` (configuration not stated): the T/C was found to be 1.3 in [1]; 2.1 in data set [2]; 1.6 in data set [3]; 1.2 in [4]; 3.6 in data set [8]. For the same compound, the zone of inhibition at 0.8 µg/mL in the data set with Bacillus subtilis [10] was determined as 15.3 mm. Moreover, in the data set with P388 [5], the outcome was inactive. The zone of inhibition at 12.5 µg/mL in the data set with Bacillus subtilis [6] was found to be 27.8 mm. Besides, in the data set with Bacillus subtilis [13], the zone of inhibition at 0.2 µg/mL stood at 11.3 mm. For the same compound, the Activity result in the data set with Escherichia coli [16] is “Toxic”. Moreover, the zone of inhibition at 50 µg/mL in the data set on Bacillus subtilis [7] stood at 33 mm. The zone of inhibition at 3.1 µg/mL with Bacillus subtilis [19] amounted to 22 mm.
